Earlier results as cited in patent publication US20200115358A1, “ICARIIN AND ICARITIN DERIVATIVES” (H. LEE MOFFITT CANCER CENTER AND RESEARCH INSTITUTE, INC., priority 2016, published 2020).

Tested on: MDSCs

Molecule | inflammatory responses associated with MDSCs
COc1ccc(-c2oc3c(CCC(C)(C)O)c(O)cc(O)c3c(=O)c2O)cc1 [ICT] | effectively inhibit
Icariin | effectively inhibit
